# Test results taken from patent US5955440A, “Macrolide LHRH antagonists” (Abbott Laboratories, priority 1998, dated 1999).
# Legend:
# [1] = target: T1, LHRH rat pituitary receptor (Rattus norvegicus, UniProt P30969); assay: LHRH rat pituitary receptor binding (pKI); details: negative logarithm of the equilibrium dissociation constants; for Ki: Table 1, read-out: receptor binding affinity (pKI) (converted)
# T1 construct: from tissue; host or cells: rat pituitary
# T1 sequence (P30969 1-327): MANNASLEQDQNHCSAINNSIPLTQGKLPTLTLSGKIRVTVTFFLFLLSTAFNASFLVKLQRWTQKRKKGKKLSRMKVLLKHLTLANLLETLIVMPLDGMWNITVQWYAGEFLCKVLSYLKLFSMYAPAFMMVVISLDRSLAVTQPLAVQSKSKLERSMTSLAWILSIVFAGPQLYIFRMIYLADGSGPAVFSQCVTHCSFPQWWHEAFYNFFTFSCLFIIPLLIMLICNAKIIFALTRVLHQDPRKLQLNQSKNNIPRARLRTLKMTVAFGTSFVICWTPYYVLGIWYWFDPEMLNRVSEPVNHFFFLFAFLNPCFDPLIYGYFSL
# Protocol: (§1) Representative compounds of the present invention were evaluated in in vitro tests for LHRH rat pituitary receptor binding (pKI) and for LH inhibition from rat pituitary cells for antagonist potency (pA2). The tests employed the methods detailed in F. Haviv, et al. J. Med. Chem., 32: 2340-2344 (1989). The receptor binding affinity (pKI) is the negative logarithm of the equilibrium dissociation constants.
# rat pituitary cells = target: T2, rat pituitary cells (Rattus norvegicus, UniProt P30969); assay: LH inhibition from rat pituitary cells, antagonist potency (pA2); type: cell-based; details: negative log of antagonist concentration shifting the leuprolide response curve to two-fold higher concentration, Table 2
# T2 construct: endogenous in cells; host or cells: rat pituitary cells
# T2 sequence (P30969 1-327): T1 sequence (P30969 1-327)
# Protocol: as §1
# The pA2 value is the negative logarithm of the concentration of antagonist which shifts the response curve produced by the agonist leuprolide to two-fold higher concentration. Leuprolide is the LHRH agonist having the structure pyro-Glu^1 -His^2 -Trp^3 -Ser^4 -Tyr^5 -D-Leu^6 -Leu^7 -Arg^8 -Pro^9 -NHEt and is disclosed and claimed in U.S. Pat. No. 4,005,063. Typically pA2 values of 7.0 or greater are indicative of good LHRH antagonist potency.
structure (smiles),measurement,setting,value
"CC[C@H]1OC(=O)[C@H](C)[C@@H](O[C@H]2C[C@@](C)(OC)[C@@H](O)[C@H](C)O2)[C@H](C)[C@@H](O[C@@H]2O[C@H](C)C[C@H](N(C)C3CCCC3)[C@H]2O)[C@](C)(OC)C[C@@H](C)C(=O)[C@H](C)[C@H]2N(CCc3ccc(Cl)c(Cl)c3)C(=O)O[C@]12C [Example 1, 3'-N-Desmethyl-3'-N-cyclopentyl-11-deoxy-11-[carboxy-(3,4-dichlorophenethylamino)]-6-O-methyl-erythromycin A 11,12-(cyclic carbamate)]",Ki,[1],0.813 nM
same,Kb,rat pituitary cells,0.794 nM
"CCCN(C)[C@H]1C[C@@H](C)O[C@@H](O[C@@H]2[C@@H](C)[C@H](O[C@H]3C[C@@](C)(OC)[C@@H](O)[C@H](C)O3)[C@@H](C)C(=O)O[C@H](CC)[C@@]3(C)OC(=O)N(CCc4ccc(Cl)c(Cl)c4)[C@@H]3[C@@H](C)C(=O)[C@H](C)C[C@@]2(C)OC)[C@@H]1O [Example 3, 3'-N-Desmethyl-3'-N-n-propyl-11-deoxy-11-[carboxy-(3,4-dichlorophenethylamino)]-6-O-methyl-erythromycin A 11,12-(cyclic carbamate)]",receptor binding affinity (pKI),[1]; Table 1,9.13
same,pA2,rat pituitary cells,8.60
"CC[C@H]1OC(=O)[C@H](C)[C@@H](O[C@H]2C[C@@](C)(OC)[C@@H](O)[C@H](C)O2)[C@H](C)[C@@H](O[C@@H]2O[C@H](C)C[C@H](N(C)CCCCc3cccc(C)n3)[C@H]2O)[C@](C)(OC)C[C@@H](C)C(=O)[C@H](C)[C@H]2N(CCc3ccc(F)c(Cl)c3)C(=O)O[C@]12C [Example 84, 3'-N-Desmethyl-3'-N-[4-(6-methyl)-2-pyridyl]butyl-11-deoxy-11-[carboxy-(3-chloro-4-fluorophenethylamino)]-6-O-methyl-erythromycin A 11,12-(cyclic carbamate)]",Ki,[1],7.08 nM
"CC[C@H]1OC(=O)[C@H](C)[C@@H](O[C@H]2C[C@@](C)(OC)[C@@H](O)[C@H](C)O2)[C@H](C)[C@@H](O[C@@H]2O[C@H](C)C[C@H](N(C)C(C)CCc3ccc(O)cc3)[C@H]2O)[C@](C)(OC)C[C@@H](C)C(=O)[C@H](C)[C@H]2N(CCc3ccc(Cl)c(Cl)c3)C(=O)O[C@]12C (some centres unmarked) [Example 85, 3'-N-Desmethyl-3'-N-(1-methyl)[3-(4-hydroxy)phenyl]propyl-11-deoxy-11-[carboxy-(3,4-dichlorophenethylamino)]-6-O-methyl-erythromycin A 11,12-(cyclic carbamate)]",Ki,[1],5.89 nM
"CC[C@H]1OC(=O)[C@H](C)[C@@H](O[C@H]2C[C@@](C)(OC)[C@@H](O)[C@H](C)O2)[C@H](C)[C@@H](O[C@@H]2O[C@H](C)C[C@H](N(C)C(C)CCc3ccc(O)cc3)[C@H]2O)[C@](C)(OC)C[C@@H](C)C(=O)[C@H](C)[C@H]2N(CCc3ccc(F)c(Cl)c3)C(=O)O[C@]12C (some centres unmarked) [Example 86, 3'-N-Desmethyl-3'-N-(1-methyl)[3-(4-hydroxy)phenyl]propyl-11-deoxy-11-[carboxy-(3-chloro-4fluorophenethylamino)]-6-O-methyl-erythromycin A 11,12-(cyclic carbamate)]",Ki,[1],1.78 nM
"CC[C@H]1OC(=O)[C@H](C)[C@@H](O[C@H]2C[C@@](C)(OC)[C@@H](O)[C@H](C)O2)[C@H](C)[C@@H](O[C@@H]2O[C@H](C)C[C@H](N(C)CCCc3cccc(C)n3)[C@H]2O)[C@](C)(OC)C[C@@H](C)C(=O)[C@H](C)[C@H]2N(CCc3ccc(F)c(Cl)c3)C(=O)O[C@]12C [Example 87, 3'-N-Desmethyl-3'-N-[3-(6-methyl-2-pyridyl)propyl]-11-deoxy-11-[carboxy-(3-chloro-4-fluorophenethylamino)]-6-O-methyl-erythromycin A 11,12-(cyclic carbamate)]",Ki,[1],2.24 nM
"CC[C@H]1OC(=O)[C@H](C)[C@@H](O[C@H]2C[C@@](C)(OC)[C@@H](O)[C@H](C)O2)[C@H](C)[C@@H](O[C@@H]2O[C@H](C)C[C@H](N(C)CCCc3ccc(C)cn3)[C@H]2O)[C@](C)(OC)C[C@@H](C)C(=O)[C@H](C)[C@H]2N(CCc3ccc(F)c(Cl)c3)C(=O)O[C@]12C [Example 88, 3'-N-Desmethyl-3'-N-[3-(5-methyl-2-pyridyl)propyl]-11-deoxy-11[carboxy-(3-chloro-4-fluorophenethylamino)]-6-O-methyl-erythromycin A 11,12-(cyclic carbamate)]",Ki,[1],2.09 nM
"CC[C@H]1OC(=O)[C@H](C)[C@@H](O[C@H]2C[C@@](C)(OC)[C@@H](O)[C@H](C)O2)[C@H](C)[C@@H](O[C@@H]2O[C@H](C)C[C@H](N(C)CCc3ccccn3)[C@H]2O)[C@](C)(OC)C[C@@H](C)C(=O)[C@H](C)[C@H]2N(CCc3ccc(Cl)c(Cl)c3)C(=O)O[C@]12C [Example 89, 3'-N-Desmethyl-3'-N-(2-pyridyl)ethyl-11-deoxy-11-[carboxy-(3,4-dichlorophenethylamino)]-6-O-methyl-erythromycin A 11,12-(cyclic carbamate)]",Ki,[1],4.17 nM
"CC[C@H]1OC(=O)[C@H](C)[C@@H](O[C@H]2C[C@@](C)(OC)[C@@H](O)[C@H](C)O2)[C@H](C)[C@@H](O[C@@H]2O[C@H](C)C[C@H](N(C)CCc3ccccn3)[C@H]2O)[C@](C)(OC)C[C@@H](C)C(=O)[C@H](C)[C@H]2N(CCc3ccc(F)c(Cl)c3)C(=O)O[C@]12C [Example 90, 3'-N-Desmethyl-3'-N-(2-pyridyl)ethyl-11-deoxy-11-[carboxy-(3-chloro-4-fluorophenethylamino)]-6-O-methyl-erythromycin A 11,12-(cyclic carbamate)]",Ki,[1],4.07 nM
"CC[C@H]1OC(=O)[C@H](C)[C@@H](O[C@H]2C[C@@](C)(OC)[C@@H](O)[C@H](C)O2)[C@H](C)[C@@H](O[C@@H]2O[C@H](C)C[C@H](N(C)Cc3ccc(O)cc3)[C@H]2O)[C@](C)(OC)C[C@@H](C)C(=O)[C@H](C)[C@H]2N(CCc3ccc(Cl)c(Cl)c3)C(=O)O[C@]12C [Example 91, 3'-N-Desmethyl-3'-N-(4-hydroxybenzyl)-11-deoxy-11-[carboxy-(3,4-dichlorophenethylamino)]-6-O-methyl-erythromycin A 11,12-(cyclic carbamate)]",Ki,[1],9.55 nM
"CC[C@H]1OC(=O)[C@H](C)[C@@H](O[C@H]2C[C@@](C)(OC)[C@@H](O)[C@H](C)O2)[C@H](C)[C@@H](O[C@@H]2O[C@H](C)C[C@H](N(C)Cc3ccncc3)[C@H]2O)[C@](C)(OC)C[C@@H](C)C(=O)[C@H](C)[C@H]2N(CCc3ccc(Cl)c(Cl)c3)C(=O)O[C@]12C [Example 92, 3'-N-Desmethyl-3'-N-(4-pyridylmethyl)-11-deoxy-11-[carboxy-(3,4-dichlorophenethylamino)]-6-O-methyl-erythromycin A 11,12-(cyclic carbamate)]",Ki,[1],6.31 nM
"CC[C@H]1OC(=O)[C@H](C)[C@@H](O[C@H]2C[C@@](C)(OC)[C@@H](O)[C@H](C)O2)[C@H](C)[C@@H](O[C@@H]2O[C@H](C)C[C@H](N(C)CCC(C)SC)[C@H]2O)[C@](C)(OC)C[C@@H](C)C(=O)[C@H](C)[C@H]2N(CCc3ccc(Cl)c(Cl)c3)C(=O)O[C@]12C (some centres unmarked) [Example 93, 3'-N-Desmethyl-3'-N-[(3-methylthio)butyl]-11-deoxy-11-[carboxy-(3,4-dichlorophenethylamino)]-6-O-methyl-erythromycin A 11,12-(cyclic carbamate)]",Ki,[1],5.01 nM
